Source: article PMC5077133, “Towards Development of Small Molecule Lipid II Inhibitors as Novel Antibiotics” (PLoS ONE, 2016)
Where two headings read alike, the source gives them in different places.

Legend:
E. faecium EF1509 (VRE) = experiment: Antibacterial activity (MIC, broth dilution); assay type: cell-based; conditions: CLSI, in µg/mL
Description: (§1) Determination of the Minimal Inhibitory Concentrations (MIC) by dilution was carried out by broth dilution according to CLSI standards.

E. faecium F118 (VRE) = experiment: Antibacterial activity (MIC, broth dilution); assay type: cell-based; conditions: CLSI, in µg/mL
Description: as §1

P. aeruginosa ATCC 27853 = experiment: Antibacterial activity (MIC, broth dilution); assay type: cell-based; conditions: CLSI
Description: as §1

[1] = Cytotoxicity against mammalian cells (MTS assay); assay type: cell-based; conditions: human, HeLa cells (ATCC CCL-2.2)
Summary of the method: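 HeLa cells exposed 72 h in RPMI1640 to compounds at 64 to 0.125 μg/ml, in triplicate. Viability measured as mitochondrial activity by MTS, and CC50 taken against a standard curve of serially diluted untreated cells.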

[2] = Liver microsome stability; assay type: in vitro ADME; conditions: human liver microsomes, pH 7.4, 1h 37 °C
Description: The in vitro microsome stability assay was performed using human liver microsomes and a Biomek FXP liquid handling workstation to deliver reagents to a 96 deep well plate on a shaking peltier with temperature controls. Human liver microsomes were purchased from Corning®. The test compound was incubated in an aqueous reaction mixture (200 ul total volume) consisting of human liver microsomes (150 mixed donor pool) and NADPH Regenerating System Solutions A and B (Corning®) in the presence of 100 mM potassium phosphate buffer (pH 7.4). The NADPH solution A comprises nicotinamide adenine dinucleotide phosphate (NADP+) and glucose 6-phosphate and solution B contains glucose-6-phosphate dehydrogenase. Solutions A and B were combined prior to adding to the reaction plate to generate a supply of NADPH. The NADPH was added last to simultaneously initiate the reactions. The final concentration of the test compound was 10 uM and the microsomal protein concentration was 0.5 mg/ml. After incubation at 37°C, the reaction was terminated at 0, 5, 10, 20, 30, 40, 50 and 60 minutes, respectively, by the addition of 600 uL of acetonitrile. Three replicates were run for each time point. The quenched reaction plate was centrifuged at 4500 rpm for 10 minutes. The supernatant was diluted 1:2 in 30% Methanol in water for LC/MS/MS analyses to monitor substrate depletion. Water was substituted for NADPH for the zero time-point samples. A control plate, without NADPH cofactor, was completed on the same day, using the same conditions.
The half-life (t1/2) was obtained using the equation below: t1/2=−0.693/slope
Where slope is the slope of the line formed by ln(% remaining test compound) vs. time. The in vitro intrinsic clearance (CLint) value was calculated using equation: CLint=(0.693/t1/2)(incubation volume(ul)/total microsomal protein(mg))

[3] = Plasma protein binding (Transil); assay type: in vitro ADME; conditions: human, TRANSIL XL PPB plates (human plasma protein beads)
Description: Human plasma protein binding was determined using TRANSIL^XL PPB plates (Sovicell, Leipzig, Germany). The compound 6jc48-1 (15 ul, 32% DMSO stock solution) was added to each well of a column (8 wells total) on a room temperature equilibrated plate. The plate was incubated for twelve minutes on a shaker at 1000 rpm then centrifuged for 10 minutes at 750 × g to sediment the beads from the suspension. Aliquots (100 ul) were transferred from the supernatants to 96-well plate for MS analysis. Plasma protein binding data analysis was completed by using the supplied spreadsheet from the manufacturer (Sovicell, User Guide TRANSIL PPB binding kit V2.01, 2013).

CYP2C19 = target: T1, CYP2C19 (Homo sapiens, UniProt P33261); experiment: Cytochrome P450 inhibition; assay type: in vitro ADME; conditions: recombinant human CYP2C19 (Supersomes), pH 7.4, probe CEC, IC50 fluorescence, substrate CEC, read-out: P450 enzyme inhibition IC50 CYP2C19/CEC
T1 construct: purchased Corning
T1 sequence (P33261 whole entry): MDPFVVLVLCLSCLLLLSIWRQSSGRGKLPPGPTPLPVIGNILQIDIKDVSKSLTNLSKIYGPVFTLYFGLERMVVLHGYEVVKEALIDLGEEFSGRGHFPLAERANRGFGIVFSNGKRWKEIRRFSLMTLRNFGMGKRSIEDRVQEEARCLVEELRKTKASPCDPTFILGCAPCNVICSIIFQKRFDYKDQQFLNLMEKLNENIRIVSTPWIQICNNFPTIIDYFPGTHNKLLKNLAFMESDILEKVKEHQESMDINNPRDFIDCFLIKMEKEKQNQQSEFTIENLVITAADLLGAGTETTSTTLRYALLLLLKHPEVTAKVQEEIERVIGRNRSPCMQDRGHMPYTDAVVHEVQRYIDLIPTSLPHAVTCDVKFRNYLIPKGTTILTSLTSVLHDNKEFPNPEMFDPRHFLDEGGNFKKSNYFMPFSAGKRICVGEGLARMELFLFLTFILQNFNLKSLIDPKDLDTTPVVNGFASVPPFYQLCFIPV
Description: (§2) The final concentration of each substrate was 1 μM.
(§3) Computation of IC50 values:The background of no-enzyme samples to determine the background value were averaged. The positive control or full-reaction samples to determine the signal value were averaged.
(§4) The percent activity of each sample was calculated as follows:
(§5) [(Test compound metabolite–average background)/(average signal–average background)] X 100 = % activity
(§6) The the IC50 value using non-linear regression was calculated.

CYP2D6 = target: T2, CYP2D6 (Homo sapiens, UniProt P10635); experiment: Cytochrome P450 inhibition; assay type: in vitro ADME; conditions: recombinant human CYP2D6 (Supersomes), pH 7.4, probe AMMC, IC50 fluorescence, substrate AMMC, read-out: P450 enzyme inhibition IC50 CYP2D6/ AMMC
T2 construct: purchased Corning
T2 sequence (P10635 whole entry): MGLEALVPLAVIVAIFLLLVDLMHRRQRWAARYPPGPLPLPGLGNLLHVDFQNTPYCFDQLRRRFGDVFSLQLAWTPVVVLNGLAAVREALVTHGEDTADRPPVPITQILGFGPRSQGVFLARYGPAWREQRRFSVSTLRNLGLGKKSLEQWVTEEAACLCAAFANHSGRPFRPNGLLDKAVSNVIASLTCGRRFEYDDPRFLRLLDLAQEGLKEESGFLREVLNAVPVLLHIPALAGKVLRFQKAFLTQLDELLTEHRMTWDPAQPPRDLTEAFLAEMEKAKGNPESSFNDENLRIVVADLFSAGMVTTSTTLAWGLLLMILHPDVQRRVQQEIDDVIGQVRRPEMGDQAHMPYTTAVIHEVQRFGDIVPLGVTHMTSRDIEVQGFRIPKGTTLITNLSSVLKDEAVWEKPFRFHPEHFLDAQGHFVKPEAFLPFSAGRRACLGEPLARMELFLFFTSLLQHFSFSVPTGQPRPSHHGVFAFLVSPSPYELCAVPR
Description: as §2, §3, §4, §5, §6

CYP3A4 = target: T3, CYP3A4 (Homo sapiens, UniProt P08684); experiment: Cytochrome P450 inhibition; assay type: in vitro ADME; conditions: IC50 fluorescence
T3 construct: purchased Corning
T3 sequence (P08684 whole entry): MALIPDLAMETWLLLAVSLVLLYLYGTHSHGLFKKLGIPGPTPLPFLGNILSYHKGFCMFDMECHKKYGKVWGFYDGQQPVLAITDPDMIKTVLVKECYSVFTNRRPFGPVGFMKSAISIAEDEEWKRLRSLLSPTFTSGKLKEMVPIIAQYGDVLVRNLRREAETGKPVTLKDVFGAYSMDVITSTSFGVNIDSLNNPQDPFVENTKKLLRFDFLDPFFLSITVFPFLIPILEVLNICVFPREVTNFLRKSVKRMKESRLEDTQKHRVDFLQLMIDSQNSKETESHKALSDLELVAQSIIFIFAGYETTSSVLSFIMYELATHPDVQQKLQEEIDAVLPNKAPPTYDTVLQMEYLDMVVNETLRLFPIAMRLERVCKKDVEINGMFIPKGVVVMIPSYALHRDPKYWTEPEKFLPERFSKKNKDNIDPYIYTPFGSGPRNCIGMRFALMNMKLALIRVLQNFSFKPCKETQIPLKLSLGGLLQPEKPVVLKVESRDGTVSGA
Description: as §2, §3, §4, §5, §6

**Q.** What does the source list for `CN(C)c1ccc(/C=C/c2cc(-c3ccc(Br)cc3)cc(-c3ccc(Br)cc3)[o+]2)cc1` [6jc48-1]?
**A.** Antibacterial activity (MIC) E. faecium EF1509 (VRE) (E. faecium EF1509 (VRE)): 2.828; Antibacterial activity (MIC) E. faecium F118 (VRE) (E. faecium F118 (VRE)): 5.657; Antibacterial activity (MIC) P. aeruginosa ATCC 27853 (P. aeruginosa ATCC 27853): ≥ 64 µg/mL; CC50 at 72 h [1]: > 100 µg/mL; half-life at 10 uM ([2]; read-out: Liver microsome stability Half-life): > 1 h; microsomal CLint at 10 uM ([2]; read-out: Liver microsome stability clearance): < 23 µL/min/mg; fraction unbound at 12 min [3]: 0.11; IC50 (CYP2C19): > 10 µM; IC50 (CYP2D6): > 10 µM; IC50 (CYP3A4; substrate BFC, read-out: P450 enzyme inhibition IC50 CYP3A4/ BFC): 1.3 µM; IC50 (CYP3A4; human, recombinant human CYP3A4 (Supersomes), pH 7.4, probe DBF, substrate DBF, read-out: P450 enzyme inhibition IC50 CYP3A4/ DBF): > 10 µM
